Results as given in patent publication US20200165312A1, “COSMETIC COMPOSITION FOR IMPROVING SKIN CONDITIONS COMPRISING FUSION PROTEIN INCLUDING SKIN PENETRATION ENHANCING PEPTIDE” (LG HOUSEHOLD & HEALTH CARE LTD., priority 2017, published 2020).

Experiments:
skin keratinocytes = test: Keratinocyte growth (skin barrier strengthening), Cell Counter Kit-8; type: cell-based; settings: 100 ng/mL T-IGF-1 or IGF-1, one day; control = 100
Description: Specifically, skin keratinocytes were cultured in a 96-well plate for one day to obtain cultures at a density of 6,000 cells per well. The cultures were washed with PBS and cultured in a serum-free DMEM medium for one day. The cells were washed with PBS again and cultured in a serum-free DMEM medium supplemented with 100 ng/mL T-IGF-1 or IGF-1 for one day. The cultures were obtained therefrom and a difference between proliferated amounts of cells was quantitively analyzed using the Cell Counter Kit-8 (Dojindo). Here, skin keratinocytes cultured in a serum-free DMEM medium without T-IGF-1 or IGF-1 were used as a control (Table 14).
Specifically, skin keratinocytes were cultured in a 96-well plate for 24 hours to obtain cultures at a density of 6,000 cells per well.
The cultures were washed with PBS and cultured in a serum-free DMEM medium for one day. The cells were washed with PBS again and cultured in a serum-free DMEM medium supplemented with 100 ng/mL T-KGF or KGF for one day. The cultures were obtained therefrom and a difference between proliferated amounts of cells was quantitively analyzed using the Cell Counter Kit-8 (Dojindo). Here, skin keratinocytes cultured in a serum-free DMEM medium without T-KGF or KGF were used as a control (Table 18).

[1] = Skin retentivity of growth factor fusion proteins (porcine skin disrupted, ELISA); type: in vitro ADME; settings: for Remaining amount (%): skin after 16 hours penetration test
Description: Specifically, the porcine skin remained after the experiment of Example 3-2-4 was recovered, frozen in liquid nitrogen, and disrupted. An amount of PDGFa or T-PDGFa contained therein was quantitatively analyzed using the ELISA kit (R&D Systems). In addition, a relative amount of T-PDGFa to PDGFa was calculated as a remaining amount (Table 8).
Specifically, the porcine skin remained after the experiment of Example 3-3-4 was recovered, frozen in liquid nitrogen, and disrupted. An amount of VEGF or T-VEGF contained therein was quantitatively analyzed using the ELISA kit (R&D Systems).
Specifically, the porcine skin remained after the experiment of Example 3-4-4 was recovered, frozen in liquid nitrogen, and disrupted. An amount of IGF-1 or T-IGF-1 contained therein was quantitatively analyzed using the ELISA kit (R&D Systems). In addition, a relative amount of T-IGF-1 to IGF-1 was calculated as a remaining amount (Table 17).
Specifically, the porcine skin remained after the experiment of Example 3-5-3 was recovered, frozen in liquid nitrogen, and disrupted. An amount of KGF or T-KGF contained therein was quantitatively analyzed using the ELISA kit (R&D Systems). In addition, a relative amount of T-KGF to KGF was calculated as a remaining amount (Table 21).
Specifically, the porcine skin remained after the experiment of Example 3-6-3 was recovered, frozen in liquid nitrogen, and disrupted. An amount of Tβ4 or T-Tβ4 contained therein was quantitatively analyzed using the ELISA kit (R&D Systems). In addition, a relative amount of T-Tβ4 to Tβ4 was calculated as a remaining amount (Table 25).

dermal fibroblasts [2] = test: Collagen production in dermal fibroblasts (ELISA); type: cell-based, human; settings: 10 ng/mL, serum-free DMEM, two days; control = 100
Description: Specifically, dermal fibroblasts were inoculated onto a 24-well plate and cultured for 24 hours to obtain cultures having a saturation degree of 70 to 80%. The cultures were washed with PBS and cultured in a serum-free DMEM medium including 10 ng/mL T-PDGFa or PDGFa for two days. A supernatant was obtained therefrom and the amount of collagen produced and released in the culture solution was quantitively analyzed using an ELISA kit (R&D Systems) (Table 4).

dermal fibroblasts [3] = test: Hyaluronic acid (HA) production in dermal fibroblasts (ELISA); type: cell-based, human; settings: 10 ng/mL T-PDGFa or PDGFa, two days; control = 100
Description: Specifically, dermal fibroblasts were inoculated onto a 24-well plate and cultured for 24 hours to obtain cultures having a saturation degree of 70 to 80%. The cultures were washed with PBS and cultured in a serum-free DMEM medium including 10 ng/mL T-PDGFa or PDGFa for two days. A supernatant was obtained therefrom and the amount of hyaluronic acid (HA) produced and released in the culture solution was quantitively analyzed using an ELISA kit (R&D Systems) (Table 5).
Specifically, dermal fibroblasts were inoculated onto a 24-well plate and cultured for 24 hours to obtain cultures having a saturation degree of 70 to 80%. […] A supernatant was obtained therefrom and the amount of hyaluronic acid (HA) produced and released in the culture solution was quantitively analyzed using an ELISA kit (R&D Systems) (Table 9).

[4] = test system: human umbilical vein endothelial cells; test: Endothelial cell proliferation, Cell Counter Kit-8; type: cell-based; settings: for Proliferation (%): 100 ng/mL T-Tβ4 or Tβ4, serum-free M199, one day, control = 100
Description: Specifically, human umbilical vein endothelial cells were inoculated onto a 96-well plate and cultured for 24 hours to obtain cultures at a density of 5,000 cells per well. The cultures were washed with PBS and cultured in a serum-free M199 medium for 16 hours. […] The cultures were obtained therefrom and a difference between proliferated amounts of cells was quantitively analyzed using the Cell Counter Kit-8 (Dojindo).
Specifically, human umbilical vein endothelial cells were inoculated onto a 96-well plate and cultured for 24 hours to obtain cultures at a density of 5,000 cells per well. The cultures were washed with PBS and cultured in a serum-free M199 medium for 16 hours. The cells were washed with PBS again and cultured in a serum-free M199 medium supplemented with 100 ng/mL T-Tβ4 or Tβ4 for one day. The cultures were obtained therefrom and a difference between proliferated amounts of cells was quantitively analyzed using the Cell Counter Kit-8 (Dojindo). Here, human umbilical vein endothelial cells cultured in a serum-free M199 medium without T-Tβ4 or Tβ4 were used as a control (Table 22).

IGF-1: insulin-like growth factor-1 having an amino acid sequence of SEQ ID NO: 41
Production (%) (keratinocyte growth) (skin keratinocytes): 250 ± 20%
Remaining amount (%) ([1]; relative to IGF-1): 100 ± 28%

PDGFa: platelet-derived growth factor subunit a having an amino acid sequence of SEQ ID NO: 35
Production (%) of collagen (dermal fibroblasts [2]): 264 ± 17%
Production (%) of hyaluronic acid (HA) (dermal fibroblasts [3]): 897 ± 30%
Remaining amount (%) ([1]; relative to PDGFa): 100 ± 20%

T-Tβ4: SEQ ID NO: 1 peptide C-terminal linked to N-terminal of Tβ4 via GG linker (NGSLNTHLAPILGGSDKPDMAEIEKFDKSKLKKTETQEKNPLPSKETIEQEKQAGES; Synthetic Fusion protein of T-T beta 4)
Proliferation (%) [4]: 165 ± 17%
cell proliferation effect compared with the unfused protein ([4]; human umbilical vein endothelial cells, 100 ng/mL): same level
Remaining amount (%) ([1]; relative to Tβ4): 9,600 ± 450%
skin retentivity higher than the unfused protein ([1]; summary of Tables 8, 13, 17, 21, 25): about 100 times

Tβ4: thymosin beta 4 having an amino acid sequence of SEQ ID NO: 47
Proliferation (%) [4]: 180 ± 8%
Remaining amount (%) ([1]; relative to Tβ4): 100 ± 17%
